Measured values from PMC9328652, “A novel class of fast‐acting antimalarial agents: Substituted 15‐membered azalides” (British Journal of Pharmacology, 2020).
Values after ≈ are worked out from the molar mass of the structure shown. Like-named read-outs stand apart in the source and are kept apart here.

How the values were obtained:
[1] = test system: Plasmodium falciparum K1 (CQ,PY); assay: [3H]hypoxanthine incorporation antimalarial assay, strain K1; type: cell-based; conditions: K1, 72 h, read-out: IC50 K1 (CQ,PY)
Procedure: (§1) The activity of the test compounds against P. falciparum in vitro was determined using the tritiated hypoxanthine incorporation assay of Desjardins et al. and additionally modified by Milhous and Chulay (Chulay, Haynes, & Diggs, [1983]; Milhous, Weatherly, Bowdre, & Desjardins, [1985]).
(§2) Compounds were dissolved in DMSO and subsequently diluted in the culture medium (RPMI 1640) supplemented with 10% v/v human plasma. Serial 1:2 drug dilutions were prepared in triplicate in microtitre plates. Culture medium supplemented with 10% v/v human plasma and type A Rhesus positive human erythrocytes infected with P. falciparum strains was added to yield a haematocrit of 3% and a parasitaemia of 0.25–0.55%. The plates were incubated at 37°C in a modular incubator flushed with a mixture of 5% oxygen, 3% carbon dioxide, and 92% nitrogen for 48 h, and then [^3H]hypoxanthine was added to give a final concentration of 12.5–16 μCi·ml^−1. After incubation for additional 24 h, particulate matter was harvested on fibreglass strips and hypoxanthine incorporation determined by scintillation spectrophotometry. […] Delayed death experiments were performed by this standard method but extending the incubation time with the drug up to 96 h.

[2] = test system: Plasmodium falciparum FCR3 (CQ,AT); assay: [3H]hypoxanthine incorporation antimalarial assay, strain FCR3; type: cell-based; conditions: FCR3, 72 h, read-out: IC50 FCR3 (CQ,AT)
Procedure: as §1, §2

[3] = test system: Plasmodium falciparum Dd2 (CQ,Q,PY,S); assay: microbe, parasite or virus in culture; type: cell-based; conditions: for IC50: Plasmodium falciparum
Procedure: as §1, §2

[4] = test system: Plasmodium falciparum V1/S (CQ,PY); assay: microbe, parasite or virus in culture; type: cell-based; conditions: 72 h, read-out: IC50 V1/S (CQ,PY)
Procedure: as §1, §2

[5] = test system: Plasmodium falciparum T9/94 (CQ); assay: [3H]hypoxanthine incorporation antimalarial assay, strain T9/94; type: cell-based; conditions: 72 h, read-out: IC50 T9/94 (CQ)
Procedure: as §1, §2

[6] = test system: Plasmodium falciparum 7G8 (CQ, PY); assay: [3H]hypoxanthine incorporation antimalarial assay, strain 7G8; type: cell-based; conditions: 7G8, 72 h, read-out: IC50 7G8 (CQ, PY)
Procedure: as §1, §2

haem polymerization = assay: Cell-free haem polymerization assay; type: biochemical; conditions: for IC50: cell‐free, N = 2
Procedure: Experiments were performed according to Tripathi, Khan, Walker, and […] ([2004]). Briefly, a solution of sodium acetate containing mono-oleoyl glycol and the corresponding inhibitor at different concentrations is placed in 1.5-ml reaction tubes. […] Multiple washing steps with Tris/SDS and bicarbonate, to remove monomeric haem and haem aggregates, allow quantification of de novo formed β-haematin.

[7] = Pharmacokinetics in P. falciparum infected and uninfected humanized mice; conditions: oral 10 mg·kg^−1, mean (SD); for Cmax / Tmax: NODscidβ2m^−/−, mouse, in vivo, po, 10 mg/kg; for Cmax: C max, blood; for Tmax: t max
Procedure: For pharmacokinetic (PK) studies in mice, animals were dosed either by intravenous (i.v.) or oral (p.o.) route.
(§3) For studies performed in Swiss albino CD‐1 mice (Harlan Laboratories, Spain), in order to obtain simultaneous blood and plasma profiles and blood‐to‐plasma (B/P) ratio, PK was performed using terminal sampling of N = 3 animals per time point and data evaluated using composite analysis. For studies performed in P. falciparum infected and non‐infected NODscidβ2m^−/− mice (Charles River Laboratories, France), only whole blood was obtained by serial sampling of N = 3 animals using tail puncture.
(§4) For analysis of whole blood samples, 25 μl of fresh blood were mixed with 25 μl of saponin solution (0.1% in water) and immediately frozen on dry ice. Plasma was obtained by centrifugation of fresh blood at 2,500 g for 10 min. Both blood and plasma samples were stored frozen at −80°C until analysis.
(§5) Diluted blood and plasma samples were processed under standard liquid–liquid extraction procedures using acetonitrile containing internal standard (clarithromycin, 100 ng·ml^−1) and analysed by LC–MS/MS in positive ion mode with electrospray. Samples were assayed for parent compound using a Sciex API 4000 and Sciex API‐2000 Triple Quadrupole Mass Spectrometer (Sciex, Division of MDS Inc., Toronto, Canada), against a series of matrix matched calibration curve standards, using multiple reaction monitoring (MRM) at the specific transitions for each compound. Non‐compartmental analysis was performed using WinNonlin, version 4.1 (Pharsight, Mountain View, CA), and the main pharmacokinetic parameters were estimated.

[8] = test system: P. falciparum 3D7^0087/N9; assay: P. falciparum murine model (humanized mice), 4-day test; type: in vivo, Plasmodium falciparum
Procedure: The in vivo efficacy evaluation of the compounds was performed using a P. falciparum murine model of malaria in non‐myelodepleted NOD. Cg‐Prkdc^ scid –β2m^ tm1Unc ‐scid IL2R_null (NODscidβ2m^−/−) mice engrafted with human erythrocytes as described previously (Angulo‐Barturen et al., [2008]; Jimenez‐Diaz et al., [2005]; Jimenez‐Diaz et al., [2009]; Jimenez‐Diaz et al., [2009]), as this model enables testing of P. falciparum strains with high infectious burden. Briefly, groups of three mice engrafted with human erythrocytes were infected with 20 × 10^6 of P. falciparum 3D7^0087/N9‐infected erythrocytes/mouse by intravenous route. The mice were randomly assigned to their corresponding experimental groups. The treatment of oral doses QD for 4 days started at day 3 after infection. Parasitaemia was measured at days 3, 5, and 7 post‐infection. The therapeutic efficacy was expressed as the dose (mg·kg^−1) that reduced parasitaemia in peripheral blood of mice at day 7 after infection by 90% (ED90) with respect to vehicle‐treated mice. Chloroquine was included as quality control for each in vivo assay. Efficacy is expressed as the daily dose (ED90), or equivalent exposure (AUCED90), administered to mice necessary to reduce parasitaemia at day 7 by 90% with respect to vehicle‐treated mice. The ED90 is estimated by fitting a four‐decade logistic equation for the log10 [parasitaemia at day 7] versus the log10 [dose] using GraphPad Prism 5.01 (GraphPad Software Inc., San Diego, CA).

[9] = test system: Plasmodium falciparum 3D7A (sensitive); design: method as in Pesic et al. ([2012]); conditions: 72 h of incubation; ref Pesic et al. ([2012]); cited from earlier work
[10] = test system: Plasmodium falciparum W2 (chloroquine/pyrimethamine resistant); design: method as in Pesic et al. ([2012]); conditions: 72 h of incubation; ref Pesic et al. ([2012]); cited from earlier work
[11] = test system: Plasmodium falciparum 3D7A (sensitive); assay: [3H]hypoxanthine incorporation antimalarial assay, strain 3D7A; type: cell-based; conditions: 72 h of incubation, N = 3
Procedure: as §1, §2

[12] = test system: Plasmodium falciparum W2 (chloroquine/pyrimethamine resistant); assay: [3H]hypoxanthine incorporation antimalarial assay, strain W2; type: cell-based; conditions: W2, 72 h, read-out: Plasmodium falciparum IC50 W2
Procedure: as §1, §2

[13] = test system: Plasmodium falciparum Dd2(AZ^R); assay: [3H]hypoxanthine incorporation antimalarial assay, azithromycin-resistant mutant Dd2(AZ^R); type: cell-based
Procedure: as §1, §2

HepG2 cells = assay: Cytotoxicity assay (MTS); type: cell-based, human; conditions: 24 h, N = 2
Procedure: The detailed protocol for cytotoxicity measurement is described elsewhere (Verbanac et al., [2005]). In brief, HepG2 cells were maintained in complete RPMI 1640 medium supplemented with 10% FBS at 37°C in a 5% CO2 atmosphere. Each culture in the 96‐well plates contained 50,000 cells which were exposed to serial dilutions (1:2) of compounds initially dissolved in DMSO and subsequently diluted in supplemented RPMI 1640 medium. Compounds were tested in duplicates, and plates were incubated for 24 h at 37°C in 5% CO2. The cytotoxicity assay was performed using the MTS CellTiter 96 AQueous One Solution Cell Proliferation Assay (Promega, USA). After the addition of MTS reagent and 2 h of incubation at 37°C in 5% CO2, the absorbance at 490 nm was recorded and Tox50 determined based on the obtained response curves.

H. influenzae ATCC49247 = assay: Antibacterial screen, broth microdilution; type: cell-based; conditions: Haemophilus influenzae
Procedure: (§6) Antibacterial activity of compounds was determined by a standard broth microdilution method (Clinical Laboratory Standard Institute CLSI, [2009]), except that for Streptococcus strains lysed blood was substituted with 5% horse serum in the testing medium. […] The activities are expressed as minimum inhibitory concentrations (MICs) in units of μg·ml^−1. […] The organisms tested represented macrolide sensitive Gram‐positive pathogens that are mainly targeted by macrolide antibiotics. Tested streptococci were clinical isolates Streptococcus pneumoniae SP030 and Streptococcus pyogenes 3565 from internal strain collection, and other strains were obtained from ATCC bioresource centre, Staphylococcus aureus ATCC13709, Haemophilus influenzae ATCC49247, and Moraxella catarrhalis ATCC23246. Double dilutions of tested compounds were prepared using TECAN Genesis 150. Bacteria were grown on appropriate agar plates (Becton Dickinson, USA)—Columbia agar with 5% sheep blood for streptococci and M. catarrhalis, Mueller‐Hinton chocolate agar for H. influenzae , and Mueller‐Hinton agar for staphylococci.

S. aureus ATCC13709 = assay: Antibacterial screen, broth microdilution; type: cell-based; conditions: Staphylococcus aureus
Procedure: as §6

S. pneumoniae SP030 = assay: Antibacterial screen, broth microdilution; type: cell-based; conditions: Streptococcus pneumoniae
Procedure: as §6

S. pyogenes 3565 = assay: Antibacterial screen, broth microdilution; type: cell-based; conditions: Streptococcus pyogenes
Procedure: as §6

M. catarrhalis ATCC23246 = assay: Antibacterial screen, broth microdilution; type: cell-based, Moraxella catarrhalis
Procedure: as §6

[14] = Pharmacokinetic studies in CD-1 mice
Procedure: For pharmacokinetic (PK) studies in mice, animals were dosed either by intravenous (i.v.) or oral (p.o.) route. For i.v. administration, the dosing volume was 10 ml·kg^−1 for a total dose of 12.5 mg·kg^−1, and for p.o. administration, the dosing volume was 20 ml·kg^−1 for a total dose of 12.5 mg·kg^−1. Dosing solutions were prepared in 100% saline ([…]) both for i.v. and p.o. administration for all compounds with the exception of compound 4 for which dosing solutions were prepared in PBS with 5% Cremophor‐EL (Fluka). Following i.v. dosing, blood samples were collected at 5 and 15 min, 1, 3, 6, 8, 24, and 48 h post‐dose. Following oral dosing, blood samples were collected at 15 and 30 min, 1, 2, 4, 6, 8, 24, and 48 h post‐dose.
as §3, §4, §5

[15] = Swiss albino CD-1, mouse, whole blood, iv, 12.5 mg/kg

CCN(CC)CCCC(C)Nc1ccnc2cc(Cl)ccc12 (stereo not drawn) [Chloroquine, reference compound]
IC50 [1]: 0.313 µM
IC50 [2]: 0.138 µM
IC50 ([3]; DD2, 72 h, read-out: IC50 Dd2 (CQ,Q,PY,S)): 0.356 µM
IC50 [4]: 0.388 µM
IC50 [5]: 0.178 µM
IC50 [6]: 0.194 µM
IC50 (haem polymerization): 3.8 to 10.6 µM
Cmax ([7]; infected (I) humanized mice): 0.21 µg/mL
Cmax ([7]; uninfected (U) humanized mice): 0.0723 µg/mL
Tmax ([7]; infected (I) humanized mice): 2.33 h
Tmax ([7]; uninfected (U) humanized mice): 1.92 h
DNAUC(0–24) ([7]; infected (I) humanized mice): 200 (13) ng*h·ml^−1·mg^−1·kg^−1
DNAUC(0–24) ([7]; uninfected (U) humanized mice): 63 (23) ng*h·ml^−1·mg^−1·kg^−1
mice with no detectable parasitaemia at day 35 ([8]; 100 mg·kg^−1, groups of three mice): all mice
AUCED90 (daily molar exposure for 90% parasitaemia reduction) ([8]; humanized mice, oral): 3.1 μM·h^−1·day^−1
IC50 [9]: 0.016 µM
IC50 [10]: 0.431 µM

CC[C@H]1OC(=O)[C@H](C)[C@@H](O[C@H]2C[C@@](C)(OC)[C@@H](O)[C@H](C)O2)[C@H](C)[C@@H](O[C@@H]2O[C@H](C)C[C@H](N(C)C(C)=O)[C@H]2O)[C@](C)(O)C[C@@H](C)CN(CCCNC(=O)Nc2ccc3ccccc3c2)[C@H](C)[C@@H](O)[C@]1(C)O [Compound 4]
IC50 [11]: 0.013 µM
IC50 [12]: 0.019 µM
Delayed death phenotype ([3]; Dd2 and Dd2(AZ^R), 48 versus 96 h): No
IC50 ([3]; DD2, 48 h, read-out: IC50 Dd2 48 h): 0.065 µM
IC50 ([3]; DD2, 96 h, read-out: IC50 Dd2 96 h): 0.07 µM
IC50 ([13]; DD2, 48 h, read-out: IC50 Dd2(AZ^R) 48 h): 0.068 µM
IC50 ([13]; DD2, 96 h, read-out: IC50 Dd2(AZ^R) 96 h): 0.053 µM
Tox50 HepG2 (HepG2 cells): 38 µM
IC50 (haem polymerization): 46.3 µM
weaker potency in haem polymerization (haem polymerization; compared with compounds 1, 2, 3 and chloroquine): ~ 10 fold
MIC (H. influenzae ATCC49247): > 64 mg/L
MIC (S. aureus ATCC13709): > 64 mg/L
MIC (S. pneumoniae SP030): > 64 mg/L
MIC (S. pyogenes 3565): > 64 mg/L
activity against M. catarrhalis (in words) (M. catarrhalis ATCC23246): only minor activity
MIC (M. catarrhalis ATCC23246; Moraxella catarrhalis, ATCC23246, broth microdilution): 32 mg/L (≈ 32.3 µM)
B/P (ratio of AUC0−t in whole blood and plasma) ([14]; CD‐1 mice, after oral administration): 0.4
DNAUCPO (AUC0−t divided by the dose) ([14]; CD‐1 mice, blood, oral gavage 12.5 mg·kg^−1): 0.3 ng·kg·h/mL/mg
half-life ([14]; Swiss albino CD-1, mouse, whole blood, intravenous, 12.5 mg/kg): 3.76 h
Vd [14, 15]: 0.708 L/kg
clearance [14, 15]: 0.888 L/h/kg
bioavailability ([14]; Swiss albino CD-1, mouse, whole blood, po, 12.5 mg/kg, F, CD‐1 mice, 12.5 mg·kg^−1 i.v. and p.o.): < 1%
